Measured values from patent US20240317761A1, “PHARMACEUTICALLY ACCEPTABLE SALT OF MOR RECEPTOR AGONIST, AND POLYMORPH THEREOF AND USE THEREOF” (SHANGHAI HAIYAN PHARMACEUTICAL TECHNOLOGY CO., LTD., priority 2021, published 2024).

What was measured:
[1] = biological target: T1, OPRM1 (MOR) in PathHunter CHO-K1 OPRM1 β-Arrestin Cell Line (Homo sapiens, UniProt P35372); experiment: β-Arrestin cell assay; format: cell-based
T1 construct: host or cells: CHO-K1 (PathHunter engineered line, lot 13K0402)
T1 sequence (P35372 whole entry): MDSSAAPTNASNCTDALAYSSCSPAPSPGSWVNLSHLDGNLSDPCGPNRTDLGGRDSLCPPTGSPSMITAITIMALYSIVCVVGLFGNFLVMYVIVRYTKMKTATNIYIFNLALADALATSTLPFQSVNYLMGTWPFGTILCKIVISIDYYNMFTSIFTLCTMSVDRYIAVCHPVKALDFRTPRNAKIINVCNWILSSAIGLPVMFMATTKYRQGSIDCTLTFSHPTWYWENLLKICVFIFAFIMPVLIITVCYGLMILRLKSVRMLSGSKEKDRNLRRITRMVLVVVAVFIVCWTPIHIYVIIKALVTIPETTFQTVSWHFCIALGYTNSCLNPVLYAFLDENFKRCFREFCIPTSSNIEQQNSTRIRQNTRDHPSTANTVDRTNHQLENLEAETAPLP
Experimental: The cell line used in the following tests was PathHunter® CHO-K1 OPRM1 β-Arrestin Cell Line; origin: DiscoverX, No: 93-0213 C2; lot: 13K0402. […]
The instruments used, their models and suppliers are as follows: • Countsatr BioMed, IM1200, ALIT; • Microscope, IX51, OLYMPUS; • Centrifuge, 5804, Eppendorf; • Thermostatic Water Bath, DK-S420, ShanghaiShenxian thermostatic equipment factory; • Cell Incubator, 3111, Thermo; • Biological Safety Cabinet, BSC-1300IIA2, AIRTECH; • OptiPlate-384White Opaque, 6007290, Perkin Elmer; • Multimode plate Reader, Victor X5, PerkinElmer; • Culture Plate-384 White Opaque, TC-treated, 6007680, PerkinElmer. […]
1. 20 μl of the cell suspension was pipetted using a pipette and the number of the cells was measured using a cell counter. […]
3. At the end of incubation, the plates were read using a multi-function plate reader.
The data were exported from the corresponding software in the computer connected with the multi-function plate reader, and the data were analyzed by using GraphPad Prism software. […]

[2] = biological target: T1, OPRM1 (MOR) in PathHunter CHO-K1 OPRM1 β-Arrestin Cell Line; experiment: HTRF-cAMP cell assay; format: cell-based
Experimental: The cell line used in the following tests was PathHunter® CHO-K1 OPRM1 β-Arrestin Cell Line; origin: DiscoverX, No: 93-0213 C2; lot: 13K0402.
The reagents used, their suppliers, article numbers, and storage temperatures are as follows: • Assay Complete™ Cell Culture Kit 107, DiscoverX, 92-3107G, −20° C.; • AssayComplete™ Thawing Reagent, DiscoverX, 92-4002TR, −20° C.; • AssayComplete™ Cell Detachment Reagent, DiscoverX, 92-0009, −20° C.; • Assay Complete™ Cell Plating Reagent, DiscoverX, 93-0563R2, −20° C.; • PathhunterDetection Kit, DiscoverX, 93-0001, −20° C.; • PBS(1×)0.0067M(PO4), Hyclone, SH30256.01, 4° C.; • DMSO, Sigma, D5879-100 ML, ambient temperature; • NKH477, Sigma, 1603, −20° C.; and • IBMX, Tocris, 15879, −20° C.
The instruments used, their models and suppliers are as follows: • Countsatr BioMed, IM1200, ALIT; • Microscope, IX51, OLYMPUS; • Centrifuge, 5804, Eppendorf; • Thermostatic Water Bath, DK-S420, ShanghaiShenxian thermostatic equipment factory; • Cell Incubator, 3111, Thermo; • Biological Safety Cabinet, BSC-1300IIA2, AIRTECH; • OptiPlate-384White Opaque, 6007290, Perkin Elmer; • Multimode plate Reader, Victor X5, PerkinElmer; • Culture Plate-384 White Opaque, TC-treated, 6007680, PerkinElmer.
1. Cell passaging steps a to h were repeated until the cells passed to the P8 generation. Cells were counted and resuspended in 2×/1 mM IBMX stimulation buffer to a cell density of 1.2*10^6/ml.
2. 1.2*10^6/ml of cell solution was seeded in a 384-well plate in a volume of 10 μl per well (i.e. 12000 cells per well) by using a multichannel pipettor.
1. Relevant reagents were prepared and the compounds were prepared according to the drug dilution preparation table.
a. […]
g. The plate was read by HTRF.
After 60 minutes of incubation, for all samples, reading plates were detected by homogeneous time-resolved fluorescence method.
The data were exported from the corresponding software in the computer connected with the multi-function plate reader, including two signal values of 665 nm and 620 nm. The ratio is calculated as ratio=665 nm signal value/620 nm signal value×10000. […]

[3] = maximum effect relative to morphine = 100%

SMILES | Emax [1, 3] | EC50 [2] | Emax [2, 3] | bias (cAMP versus β-arrestin) ([1]; compared with comparative compound D1, from Tables 5 and 6)
CC(C)C1CCC(NCC[C@@]2(c3ccccn3)CCOC3(CCCC3)C2)c2ccnn21 (some centres unmarked) [Comparative compound D1] | 28.3% | 19 nM | 52.6% | –
CC(C)[C@@H]1C[C@H](NCC[C@@]2(c3ccccn3)CCOC3(CCCC3)C2)c2ccnn21 [Compound of formula X, (4S,6S)-6-isopropyl-N-(2-((R)-9-(pyridin-2-yl)-6-oxaspiro[4.5]decane-9-yl)ethyl)-5,6-dihydro-4H-pyrrolo[1,2-b]pyrazol-4-amine] | – | 6 nM | – | better bias
